ChEMBL document CHEMBL1140658, “Inhibitors of anthrax lethal factor” (Bioorg Med Chem Lett, 2007)
The source made the active and inactive calls. The rule behind the calls is not given here.

Key:
Lethal factor = target: T1, Lethal factor (Bacillus anthracis, UniProt P15917); assay: Inhibition of anthrax lethal factor by FRET assay
T1 sequence (P15917 whole entry): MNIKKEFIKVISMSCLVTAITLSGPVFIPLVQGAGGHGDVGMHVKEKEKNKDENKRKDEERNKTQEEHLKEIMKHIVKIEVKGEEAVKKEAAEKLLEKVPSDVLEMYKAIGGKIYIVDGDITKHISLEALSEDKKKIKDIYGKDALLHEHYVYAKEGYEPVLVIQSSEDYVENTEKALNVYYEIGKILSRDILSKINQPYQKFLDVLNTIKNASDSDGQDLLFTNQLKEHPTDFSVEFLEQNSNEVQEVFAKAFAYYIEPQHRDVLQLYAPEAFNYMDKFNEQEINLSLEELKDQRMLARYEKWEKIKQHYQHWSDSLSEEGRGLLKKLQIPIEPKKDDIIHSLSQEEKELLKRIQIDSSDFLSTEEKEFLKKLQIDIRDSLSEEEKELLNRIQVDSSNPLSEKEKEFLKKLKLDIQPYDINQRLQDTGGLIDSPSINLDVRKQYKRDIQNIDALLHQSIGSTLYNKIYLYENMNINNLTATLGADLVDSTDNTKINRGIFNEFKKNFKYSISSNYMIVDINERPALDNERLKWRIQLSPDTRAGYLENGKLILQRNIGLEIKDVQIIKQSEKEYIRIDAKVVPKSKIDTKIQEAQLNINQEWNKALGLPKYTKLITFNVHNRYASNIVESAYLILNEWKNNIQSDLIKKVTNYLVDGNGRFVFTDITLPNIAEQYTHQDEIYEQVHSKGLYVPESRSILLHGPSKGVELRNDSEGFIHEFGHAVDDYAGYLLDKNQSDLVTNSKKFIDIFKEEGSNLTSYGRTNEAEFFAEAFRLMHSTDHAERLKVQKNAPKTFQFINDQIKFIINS

[1] = target: T2, Lethal factor (Bacillus anthracis) (UniProt P15917); assay: (§1) Inhibition of anthrax lethal factor upto 100 uM by FRET assay
T2 sequence (whole entry): T1 sequence (P15917 whole entry)

[2] = target: T2, Lethal factor (Bacillus anthracis); assay: as §1; remark: listed apart in the source
J774.A1 [3] = assay: Inhibition of anthrax lethal factor induced J774A.1 cell death by MTT assay; type: functional, cell-based; settings: Mus musculus
J774.A1 [4] = assay: Cytotoxicity against J774A.1 cells assessed as cell viability upto 30 uM after 4 hrs by MTT assay; type: functional, cell-based; settings: Mus musculus
J774.A1 [5] = assay: Inhibition of anthrax lethal factor induced J774A.1 cell death at 20 uM by MTT assay; type: functional, Mus musculus; set-up: scale not given: the % may be the effect or the level left
J774.A1 [6] = assay: Inhibition of anthrax lethal factor induced J774A.1 cell death at 85 uM by MTT assay; type: functional, cell-based; settings: Mus musculus
J774.A1 [7] = assay: Cytotoxicity against J774A.1 cells assessed as cell viability at 30 uM after 4 hrs by MTT assay; type: functional, cell-based; settings: Mus musculus

Row | Structure (SMILES) | IC50 (Lethal factor) [µM] | Activity [1] | Activity [2] | Ki (Lethal factor) [µM] | also measured
1 | CCCCCCCC/C=C\CCCCCCCC(=O)NCCc1cc(O)c(O)cc1O | 70 |  |  |  | 
2 | CCCCCCCC/C=C\CCCCCCCC(=O)NCCc1ccc(OC)c(OC)c1 |  | inactive | inactive |  | 
3 | CCCCCCCC/C=C\CCCCCCCC(=O)NCCc1ccc(O)c(O)c1 [OLEOYL DOPAMINE] | 15 |  |  | 3 | IC50 (J774.A1 [3]): 5 µM; Activity (J774.A1 [4]): Not toxic
4 | CCCCCCCC/C=C\CCCCCCCC(=O)NCCc1ccc(C(=O)NO)cc1 | 32 |  |  | 6 | 
5 | CCCCCCCC/C=C\CCCCCCCC(=O)NCCc1ccc(O)cc1 |  | inactive | inactive |  | 
6 | CCCCCCCC/C=C\CCCCCCCC(=O)NCCc1cc(O)c(O)c(O)c1 | 13 |  |  | 1.7 | Activity (J774.A1 [5]): 46%; Activity (J774.A1 [6]): inactive; Activity (J774.A1 [7]): inactive
